Entries after “also recorded” stand apart in the source; their conditions may differ.
Columns and labels:
Format in all cases: cell-based
MV4-11 cell line = assay: CellTiter-Glo Luminescent Cell Viability Assay, cell growth inhibition; conditions: Homo sapiens, 96 h, 4 days
How it was run: (§1)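 Cells plated at 2,000/well with serially diluted compounds, incubated 4 days at 37° C, 5% CO2. Viability read by CellTiter-Glo luminescence after 10-20 min at room temperature; IC50 from dose-response fit.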

RS4; 11 cell line = assay: as above; conditions: Homo sapiens, 96 h, 4 days
How it was run: as §1

[1] = system: p53 target genes: p21, PUMA and BAX; assay: Activation of p53 downstream target genes, quantitative real-time PCR; conditions: RS4, 11 cells, 10 nM
Procedure: RS4; 11 cells were treated with Cpd. A (0.3 μM), Cpd. No. 15 (10 nM), and Cpd. No. 22 (10 nM) for 3, 6, or 12 hours, and then harvested and washed. Cellular mRNA samples were extracted from the cells and then subjected to Reverse Transcription and quantitative real-time PCR for the analysis of the mRNA levels of three representative p53 target genes: p21, that induces cell cycle arrest, and PUMA and BAX that leads to apoptosis. […] A, Cpd. No. 15, and Cpd. No. 22.

RS4; 11 cells = assay: Cell growth inhibition by WST assay with Cpd. C co-treatment (CRBN competition); set-up: LogIC50: unit not given here; conditions: for HillSlope / IC50 / LogIC50: 4 days
Procedure: RS4; 11 cells were pre-incubated with different concentrations of Cpd. C to compete for the binding of phthalimide to CRBN, or DMSO, for 2 hours before adding Cpd. A, Cpd. No. 14, Cpd. No. 15, and Cpd. No. 22. The cells were then co-treated with 10, 20, or 30 μM Cpd. C and increasing concentrations of Cpd. A, Cpd. No. 14, Cpd. No. 15, and Cpd. No. 22 for 4 days, with a starting cell concentration of ˜15,000/well. Cell growth inhibition was determined by the WST assay. […] No. 14, Cpd. No. 15, and Cpd. No. 22 with co-treatment of Cpd. C. The structure of Cpd.

[2] = system: RS4; 11 cells with stable shRNA knockdown of p53; assay: Cell growth inhibition by WST assay, p53 knockdown cells; set-up: LogIC50: unit not given here; conditions: RS4;11 sh p53, 4 days
Procedure: (§2) RS4; 11 cells with stable shRNA knockdown of p53 or those transfected shRNA control vector were treated with Cpd. A, Cpd. B, Cpd. No. 14, Cpd. No. 21, Cpd. No. 15, and Cpd. No. 22 for 4 days, with a cell concentration of ˜15,000/well. Cell growth inhibition was determined by WST assay. See Table 7 (p53) and Table 8 (control). Significant increases in IC50 of the Compounds of the Disclosure in the p53 knockdown RS4; 11 cells were observed compared with that in the sh control cells. […] The p53 knockdown efficiency was determined by western blot for p53 protein levels with or without treatment of Cpd. A (1 μM) for 2 hours.

[3] = system: RS4; 11 cells transfected shRNA control vector; assay: Cell growth inhibition by WST assay, shRNA control cells; set-up: LogIC50: unit not given here; conditions: RS4;11 sh Control, 4 days
Procedure: as §2

MDM2 [4] = target: T1, MDM2 (Homo sapiens, UniProt Q00987); assay: MDM2 degradation and p53 activation, western blotting of cell lysates; set-up: endogenous in cells
T1 sequence (Q00987 whole entry): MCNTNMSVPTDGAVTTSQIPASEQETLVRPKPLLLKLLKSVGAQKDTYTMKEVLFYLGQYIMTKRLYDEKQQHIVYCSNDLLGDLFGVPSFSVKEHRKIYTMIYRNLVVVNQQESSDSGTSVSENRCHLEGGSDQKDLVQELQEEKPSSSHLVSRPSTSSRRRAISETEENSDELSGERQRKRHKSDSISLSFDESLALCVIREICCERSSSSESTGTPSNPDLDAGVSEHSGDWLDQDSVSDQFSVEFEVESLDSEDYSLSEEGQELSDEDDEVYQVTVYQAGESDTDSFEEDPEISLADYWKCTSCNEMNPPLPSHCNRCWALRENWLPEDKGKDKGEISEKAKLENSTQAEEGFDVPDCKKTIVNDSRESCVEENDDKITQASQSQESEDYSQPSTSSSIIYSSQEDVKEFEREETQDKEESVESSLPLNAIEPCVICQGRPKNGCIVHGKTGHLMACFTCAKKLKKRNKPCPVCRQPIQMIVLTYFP
Procedure: MV-4-11 cells were treated with Cpd. A, Cpd. B, Cpd. No. 15, and Cpd. No. 22 for 2 hours, then harvested and lysed. The cell lysates were subjected to western blotting analysis. […] No. 15 and Cpd. No. 22 as compared to Cpd. A, indicating MDM2 degradation.

MDM2 [5] = target: T1, MDM2; assay: as above; set-up: endogenous in cells; host or cells: RS4;11; conditions: RS4
Procedure: RS4; 11 cells were treated with Cpd. A, Cpd. B, Cpd. No. 15, and Cpd. No. 22 for 2 hours, then harvested and lysed. The cell lysates were subjected to western blotting analysis. […] No. 15 and Cpd. No. 22 as compared to Cpd. A, indicating MDM2 degradation. The structure of Cpd.

MDM2 [6] = target: T1, MDM2; assay: MDM2 degradation with or without proteasome inhibitor MG-132, western blotting; set-up: endogenous in cells; host or cells: RS4;11; conditions: FIG. 6
Procedure: RS4; 11 cells were pre-incubated with the proteasome inhibitor MG-132 (20 μM) or without any pre-incubation for 2 hours. Next, the cells were treated with Cpd. A (0.3 μM), Cpd. No. 14 (0.03 μM), Cpd. No. 15 (0.01 μM), and Cpd. No. 22 (0.01 μM) for 2 hours, then harvested and lysed. The cell lysates were subject to western blotting analysis.

MDM2 [7] = target: T1, MDM2; assay: MDM2 degradation and p53 activation after pre-incubation with Cpd. C, Western blot; set-up: endogenous in cells; host or cells: RS4;11
Procedure: RS4; 11 cells were pre-incubated with 30 μM Cpd. C to compete for the binding of phthalimide to CRBN, or DMSO, for 2 hours before adding Cpd. A, Cpd. No. 14, Cpd. No. 15, and Cpd. No. 22. In the Western blot RS4; 11 cells were then co-treated with the indicated compounds at the indicated concentrations after pre-incubation. […] No. 14, Cpd. No. 15, and Cpd.

[8] = RS4, 11 cells, pre-incubated with 30 μM Cpd. C for 2 hours

IC50 (MV4-11 cell line): 2.7 nM | IC50 (RS4; 11 cell line): 4.7 nM | IC50 (RS4; 11 cells; + 10 uM Cpd. C): 61.7 nM | IC50 (RS4; 11 cells; + 20 uM Cpd. C): 89.6 nM | IC50 (RS4; 11 cells; + 30 uM Cpd. C): 83.2 nM | IC50 (RS4; 11 cells; Homo sapiens, 96 h, without Cpd. C): 5.73 nM | IC50 ([2]; Homo sapiens, 96 h): 137 nM | IC50 ([3]; Homo sapiens, 96 h): 9.45 nM | p53 activation (MDM2 [4]; MV-4-11 cell line): p53 activation | p53 activation (MDM2 [5]; 11 cell line): p53 activation | MDM2 degradation, dependence on proteasome (MDM2 [6]): proteasome-dependent | MDM2 degradation, dependence on cereblon (CRBN) (MDM2 [7]; FIG. 7): cereblon (CRBN)-dependent | MDM2 degradation, competition by Cpd. C (MDM2 [7]; [8]): significantly competed by Cpd. C | p53 activation, competition by Cpd. C (MDM2 [7]; [8]): significantly competed by Cpd. C
Compound: O=C1CCC(N2Cc3c(NCCOCCOCCOCCNC(=O)c4ccc(NC(=O)[C@@H]5NC6(CCCCC6)[C@@]6(C(=O)Nc7cc(Cl)ccc76)[C@H]5c5cccc(Cl)c5F)cc4)cccc3C2=O)C(=O)N1 (stereo partly drawn) [Cpd. No. 22, (3′R,4'S,5′R)-6″-chloro-4′-(3-chloro-2-fluorophenyl)-N-(4-((2-(2-(2-(2-((2-(2,6-dioxopiperidin-3-yl)-1-oxoisoindolin-4-yl)amino)ethoxy)ethoxy)ethoxy)ethyl)carbamoyl)phenyl)-2″-oxodispiro[cyclohexane-1,2′-pyrrolidine-3′,3″-indoline]-5′-carboxamide]
mRNA levels of p21 ([1]; FIG. 3): activate | mRNA levels of PUMA ([1]; FIG. 4): activate | mRNA levels of BAX ([1]; FIG. 5): activate | activation of p53 downstream target genes (mRNA levels of p21, PUMA, BAX) ([1]; 3, 6, or 12 hours): Significant activation | HillSlope (RS4; 11 cells; + 10 uM Cpd. C): −1.701 | LogIC50 (RS4; 11 cells; + 10 uM Cpd. C): −1.209 | HillSlope (RS4; 11 cells; + 20 uM Cpd. C): −1.530 | LogIC50 (RS4; 11 cells; + 20 uM Cpd. C): −1.048 | HillSlope (RS4; 11 cells; + 30 uM Cpd. C): −1.341 | LogIC50 (RS4; 11 cells; + 30 uM Cpd. C): −1.080 | HillSlope (RS4; 11 cells; without Cpd. C): −1.803 | LogIC50 (RS4; 11 cells; without Cpd. C): −2.242 | shift of the dose response curves (RS4; 11 cells; co-treatment of Cpd. C (10, 20, or 30 μM)): Significant rightward shifts | HiliSlope [2]: −0.8833 | LogIC50 [2]: −0.8628 | HiliSlope [3]: −1.567 | LogIC50 [3]: −2.025 | protein level of MDM2 (MDM2 degradation) (MDM2 [4]; MV-4-11 cells, 2 hours, compared to Cpd. A): induce MDM2 degradation; also recorded: significantly decreased | protein level of MDM2 (MDM2 degradation) (MDM2 [5]; 11 cells, 2 hours, compared to Cpd. A): induce MDM2 degradation; also recorded: significantly decreased

From patent publication US12637473B2, “MDM2 protein degraders” (THE REGENTS OF THE UNIVERSITY OF MICHIGAN, priority 2016, dated 2026)
